{"source": "patent US11912668B2", "about": "“GCN2 and perk kinase inhibitors and methods of use thereof” (Deciphera Pharmaceuticals, LLC, priority 2020, dated 2024)", "tested_on": "ATF4 in H929 multiple myeloma cells", "experiment": "H929 ATF4 ELISA assay (stimulation of cellular ATF4)", "format": "cell-based", "settings": "4 h, no thapsigargin", "procedure": "H929 multiple myeloma cells (catalog #CRL-9068) were obtained from the American Type Culture Collection (ATTC, Manassas, VA). Briefly, cells were grown in RPMI-1640 medium supplemented with 20% heat-inactivated fetal bovine serum (catalog #A3840002, ThermoFisher Scientific, Waltham, MA), 1% Penicillin/Streptomycin/L-Glutamine (catalog #10378016, ThermoFisher Scientific, Waltham, MA), and 0.05 mM 2-mercaptoethanol (catalog #21985-023, ThermoFisher Scientific, Waltham, MA) at 37° C., 5% CO2, and 95% humidity. Cells were expanded until reaching one million five hundred thousand cells per mL at which time they were subcultured or harvested for assay use. One million five hundred thousand cells per well in 1 mL complete growth medium were dispensed into 12-well plates and incubated overnight. A serial dilution of test compound was added, and cells were incubated at 37° C., 5% CO2, and 95% for four hours. Cells were lysed then ATF4 levels were measured using an ELISA assay (Proteintech, Rosemont, IL). Absorbance is measured at 450 nm and 544 nM using a Synergy2 or equivalent reader (Biotek, Winooski VT). Data were analyzed using PRISM software (Graphpad, San Diego, CA) to calculate fold stimulation of cellular ATF4 relative to vehicle treated control."}
{"smiles": "CNc1ncc2cc(-c3cccc(NS(=O)(=O)c4cc(Cl)cnc4OC)c3F)c(NC)nc2n1", "note": "[Compound 16]", "values": [{"measurement": "H929 NS ATF4 ELISA (fold stimulation of ATF4 relative to vehicle)", "result": "+++ (“+++” refers to an ATF4 stim greater than 10 fold and less than or equal to 20 fold)"}]}
